Measurements taken from US20170112791A1, “SOLID FORMULATIONS CONTAINING OMEGA-3 AND RESVERATROL” (SIGMA-TAU INDUSTRIE FARMACEUTICHE RIUNITE S.P.A., priority 2014, published 2017).

Assays:
[1] = Stability after autoxidation induced by radiation (light, 24 hours); assay type: physicochemical; settings: initial tests (Tables 2 and 3: radiation and high temperature)
Description: (§1) The HPLC Analysis was the analysis performed in order to evaluate the stability of the formulations. It was performed using a Column Symmetry C-18 4.6×150 mm, a solution of CH3CN/CH3OH/H2O 45/45/10 as eluent, a flow of 1 ml/min and a Mass spectrometry Detector. The percent amount of EPA and DHA detected are expressed as % by weight. Other stability tests were also performed:
Stability analysis after autoxidation induced by radiation and by high temperature was performed according to the following procedure: • Autoxidation induced by radiation: an amount of 100 mg of the formulation is dispersed in a 5 cm diameter Petri dish, which is placed at a distance of 12 cm from the light source and exposed to light for 24 hours. The light source is constituted by a 13 W lamp with an emission spectrum of from 300 to 640 nm, with peaks at: 440, 490, 540, 590 and 610 nm. The test is carried out at 22° C. at 60% RH • autoxidation induced by high temperature: an amount of 100 mg of the formulation is placed in an amber container and put in a stove at 60° C. for 1 month

[2] = Stability analysis of solid formulations on storage (HPLC recovery of EPA and DHA); assay type: physicochemical
Description: The formulations were divided into 3 groups and left respectively for 3 and 6 months at 25° C. at 60% RH (relative humidity), for 3 and 6 months at 30° C. at 60% RH or for 3 and 6 months at 40° C. at 70% RH.
as §1
n-3 PUFA were added to Neusilin U.S.-2 in small portions, manually mixing up to obtain a homogeneous solid. Stability tests are carried out at 25° C. at 60% RH, 30° C. at 60% RH and 40° C. at 70% RH as described above for 1, 3 and 6 months.

| SMILES | improvement of stability of EPA and DHA in the initial tests [1] | ability to maintain stable solid formulations containing omega-3 for longer periods ([2]; data of Table 4, 3 months) | antioxidant power with respect of that of α-tocopherol ([2]; from recovery after 3 months at 40° C., 1% antioxidant) |
| --- | --- | --- | --- |
| COC1=C(OC)C(=O)C(C/C=C(\C)CC/C=C(\C)CC/C=C(\C)CC/C=C(\C)CC/C=C(\C)CC/C=C(\C)CC/C=C(\C)CC/C=C(\C)CC/C=C(\C)CCC=C(C)C)=C(C)C1=O [Coenzyme Q10] | able to improve the stability | – | – |
| Cc1c(C)c2c(c(C)c1O)CC[C@@](C)(CCC[C@H](C)CCC[C@H](C)CCCC(C)C)O2 [α-tocopherol] | able to improve the stability | – | – |
| CCCCCCCCCCCCCCCC(=O)OC[C@H](O)[C@H]1OC(=O)C(O)=C1O [Ascorbyl palmitate, ascorbyl palmitate] | able to improve the stability | – | – |
| Oc1ccc(/C=C/c2cc(O)cc(O)c2)cc1 [Resveratrol, 3,5,4′-trihydroxy-trans-stilbene] | able to improve the stability | the only natural antioxidant able to maintain stable solid formulations containing omega-3 for longer periods | twice |
